Here are results for 22 compounds from patent US10174011B2, “Heterocyclic compounds, process for preparation of the same and use thereof” (SHANGHAI INSTITUTE OF MATERIA MEDICA, CHINESE ACADEMY OF …, priority 2014, dated 2019).

Where two headings read alike, the source gives them in different places.

Assay [1] concerns the target human recombinant D2 receptor (Homo sapiens (Human), UniProt P14416). Put plainly: D2 receptor antagonism activity test (inhibition of dopamine-induced decrease of cAMP production, LANCE cAMP 384 Kit). The settings on record: read-out: D2 receptor antagonism (IC50, mol/L), HEK293 cells expressing human recombinant D2 receptor, 0.1 nM-10000 nM. (In general: Cyclic AMP is a second messenger, typically raised through Gs and lowered through Gi signalling.)

Assay [2] concerns PCP-induced hyperactivity in mice. Put plainly: In vivo efficacy test (PCP-induced high locomotor activity in mice). The conditions noted are these: male ICR mice, oral administration 45 minutes before PCP 7 mg/kg i.p.; dose significantly reducing PCP-induced hyperactivity vs model group. The procedure: 5) In Vivo Efficacy Test (PCP-Induced High Locomotor Activity in Mice)
PCP solution was prepared in a suitable concentration for 7 mg/kg dosage with saline. […] Male ICR mice (18-22 g) were used as test animals. All the test mice were randomly divided into vehicle control group, model control group, positive control group, and treatment group(8 mice per group). Mice of each group were orally administered test compounds or vehicle. After 45 minutes PCP solution was administered (7 mg/kg) through intraperitoneal injection. The mice track after drug or saline administration was recorded and analyzed by the spontaneous, open-field video analysis system. […] The mice track was recorded and analyzed by the spontaneous, open-field video analysis system. The total distance in each group was calculate and expressed as mean+SD and statistical evaluation was performed by one way ANOVA.

For assay [3], the target named is human recombinant 5-HT1A receptor (Homo sapiens (Human), UniProt P08908). Put plainly: 5-HT1A receptor agonism activity test (inhibition of cAMP production, LANCE cAMP 384 Kit). It is filed as cell-based. The conditions noted are these: HEK293 cells expressing human recombinant 5-HT1A receptor; test concentration 0.1 nM-10000 nM; read-out: 5-HT1A receptor agonism (EC50, mol/L). The source says:
Pharmacological Test 1) 5-HT1A Receptor Agonism Activity Test

Assay [4] deals with human recombinant 5-HT2A receptor (Homo sapiens (Human), UniProt P28223). In words: 5-HT2A receptor antagonism activity test (FLIPR Calcium 5 Assay Kit). The settings on record: read-out: 5-HT2A receptor antagonism (IC50, mol/L).
Chain of human recombinant 5-HT2A receptor (P28223 whole entry): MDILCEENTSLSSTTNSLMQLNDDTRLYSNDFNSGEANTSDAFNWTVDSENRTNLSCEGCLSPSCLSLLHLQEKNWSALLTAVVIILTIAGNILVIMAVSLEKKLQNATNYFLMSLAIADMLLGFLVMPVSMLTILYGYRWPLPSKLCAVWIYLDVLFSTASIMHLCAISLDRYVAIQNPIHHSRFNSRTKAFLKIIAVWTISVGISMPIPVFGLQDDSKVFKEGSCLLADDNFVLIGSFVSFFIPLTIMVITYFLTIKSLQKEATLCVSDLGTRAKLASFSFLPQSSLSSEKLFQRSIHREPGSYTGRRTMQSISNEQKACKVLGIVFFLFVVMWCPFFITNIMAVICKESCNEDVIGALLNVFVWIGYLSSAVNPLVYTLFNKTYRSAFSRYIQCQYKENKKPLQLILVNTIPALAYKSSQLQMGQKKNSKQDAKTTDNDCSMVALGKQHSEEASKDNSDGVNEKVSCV
Setting [5] is: CHO-K1 cells expressing human recombinant 5-HT2A receptor, α-methyl-5-hydroxytryptamine 300 nM, 0.1 nM-10000 nM.

Chain of human recombinant 5-HT1A receptor (P08908 whole entry): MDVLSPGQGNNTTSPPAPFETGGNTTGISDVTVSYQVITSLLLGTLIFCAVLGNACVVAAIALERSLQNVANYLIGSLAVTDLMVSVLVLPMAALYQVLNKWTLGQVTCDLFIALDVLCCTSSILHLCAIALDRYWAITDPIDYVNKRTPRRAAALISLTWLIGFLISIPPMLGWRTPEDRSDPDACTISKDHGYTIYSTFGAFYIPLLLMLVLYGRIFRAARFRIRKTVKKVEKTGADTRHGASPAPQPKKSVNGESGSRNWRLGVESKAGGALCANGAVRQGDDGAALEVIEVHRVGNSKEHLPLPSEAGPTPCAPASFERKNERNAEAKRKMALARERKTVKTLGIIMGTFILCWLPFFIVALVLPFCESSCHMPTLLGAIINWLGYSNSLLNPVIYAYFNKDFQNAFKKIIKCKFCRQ
Chain of human recombinant D2 receptor (P14416 whole entry): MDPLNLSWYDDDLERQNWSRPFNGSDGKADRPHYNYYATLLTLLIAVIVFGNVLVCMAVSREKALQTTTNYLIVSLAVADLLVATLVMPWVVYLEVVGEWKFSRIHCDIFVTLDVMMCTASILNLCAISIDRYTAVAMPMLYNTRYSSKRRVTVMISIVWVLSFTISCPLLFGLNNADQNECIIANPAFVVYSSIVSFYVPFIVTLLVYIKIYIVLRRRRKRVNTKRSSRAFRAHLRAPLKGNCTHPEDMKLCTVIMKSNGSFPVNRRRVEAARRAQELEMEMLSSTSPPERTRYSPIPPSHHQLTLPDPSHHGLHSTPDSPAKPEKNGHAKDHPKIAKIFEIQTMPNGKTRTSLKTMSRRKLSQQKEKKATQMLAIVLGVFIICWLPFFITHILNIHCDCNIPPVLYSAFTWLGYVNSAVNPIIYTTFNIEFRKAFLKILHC

Take `O=C1CCc2ccc(CCN3CCN(c4cccc5sccc45)CC3)cc2N1` [Compound of example 19, 7-(2-(4-(benzo[b]thiophen-4-yl)piperazin-1-yl)ethyl)-3,4-dihydroquinolin-2(1H)-one]: the values for the IC50 in assay [1] and in assay [4] (setting [5]) were 8.62 nM and 169 nM, respectively. Further, the “Effective dose” value in assay [2] was determined as 0.1 mg/kg. Also, the EC50 in assay [3] worked out at 0.926 nM.
As to `Cl.O=C1COc2ccc(CCN3CCN(c4cccc5sccc45)CC3)cc2N1` [Compound of example 30, 6-(2-(4-(benzo[b]thiophen-4-yl)piperazin-1-yl)ethyl)-2H-benzo[b][1,4]oxazin-3(4H)-one hydrochloride], the IC50 in assay [1] came to 34.2 nM; in assay [4], 42.1 nM. The “Effective dose” value in assay [2] worked out at 0.3 mg/kg.
With `O=C1CSc2ccc(CCN3CCN(c4cccc5sccc45)CC3)cc2N1` [Compound of example 31, 6-(2-(4-(benzo[b]thiophen-4-yl)piperazin-1-yl)ethyl)-2H-benzo[b][1,4]thiazin-3(4H)-one], the results for the IC50 in assay [1] and in assay [4] (setting [5]) were 92.7 nM and 52.2 nM, respectively. Besides, the “Effective dose” value in assay [2] is recorded as 1 mg/kg. Moreover, the EC50 in assay [3] was 0.68 nM.
On the same counts, the results for `O=c1ccc2ccc(CCCCN3CCN(c4cccc5sccc45)CC3)cc2[nH]1` [Compound of example 33, 7-(4-(4-(benzo[b]thiophen-4-yl)piperazin-1-yl)butyl)quinolin-2(1H)-one] are 35.6 nM, 244 nM, 1 mg/kg and 2.24 nM.
As to `Cl.O=c1ccc2ccc(CCN3CCN(c4cccc5sc(F)cc45)CC3)cc2[nH]1` [Compound of example 57, 7-(2-(4-(2-fluorobenzo[b]thiophen-4-yl)piperazin-1-yl)ethyl)quinolin-2(1H)-one hydrochloride], the IC50 in assay [1] amounted to 8.4 nM. Further, the “Effective dose” value in assay [2] came to 1 mg/kg.
In the case of `Cl.O=C1CCc2ccc(CCN3CCN(c4cccc5sc(F)cc45)CC3)cc2N1` [Compound of example 64, 7-(2-(4-(2-fluorobenzo[b]thiophen-4-yl)piperazin-1-yl)ethyl)-3,4-dihydroquinolin-2(1H)-onehydrochloride], the IC50 was found to be 2.94 nM in assay [1] and 257 nM in assay [4] (setting [5]). The “Effective dose” value in assay [2] is given as 1 mg/kg. Also, the EC50 in assay [3] was 31.6 nM.
In the same order, the values of `O=C1CCc2cc(CCN3CCN(c4cccc5sc(F)cc45)CC3)ccc2N1` [Compound of example 65, 6-(2-(4-(2-fluorobenzo[b]thiophen-4-yl)piperazin-1-yl)ethyl)-3,4-dihydroquinolin-2(1H)-one] are 7.76 nM, 40.3 nM, 3 mg/kg and 1.25 nM.
With `O=c1[nH]c2ccc(CCN3CCN(c4cccc5sccc45)CC3)cc2o1` [Compound of example 68, 6-(2-(4-(benzo[b]thiophen-4-yl)piperazin-1-yl)ethyl)benzo[d]oxazol-2(3H)-one], the “Effective dose” value in assay [2] is recorded as 0.3 mg/kg. The IC50 in assay [4] is 4.82 nM.
Consider `O=C1COc2c(F)cc(CCCCN3CCN(c4cccc5sccc45)CC3)cc2N1` [Compound of example 72, 6-(4-(4-(benzo[b]thiophen-4-yl)piperazin-1-yl)butyl)-8-fluoro-2H-benzo[b][1,4]oxazin-3(4H)-one], for which the IC50 amounted to 13.2 nM in assay [1] and 951 nM in assay [4] (setting [5]). The “Effective dose” value in assay [2] was 3 mg/kg. The EC50 in assay [3] amounted to 2.53 nM.
On the same counts, the results for `O=C1CCc2cc(CCCCN3CCN(c4cccc5sc(F)cc45)CC3)ccc2N1` [Compound of example 74, 6-(4-(4-(2-fluorobenzo[b]thiophen-4-yl)piperazin-1-yl)butyl)-3,4-dihydroquinolin-2(1H)-one] are 1.06 nM, 874 nM, 3 mg/kg and 20.8 nM.
In the same order, the values of `O=c1[nH]c2ccc(CCN3CCN(c4cccc5sc(F)cc45)CC3)cc2[nH]1` [Compound of example 77, 5-(2-(4-(2-fluorobenzo[b]thiophen-4-yl)piperazin-1-yl)ethyl)-1H-benzo[d]imidazol-2(3H)-one] are 6.91 nM, 157 nM, 3 mg/kg and 4.8 nM.
On the same counts, the results for `O=C1COc2ccc(CCN3CCN(c4cc(F)cc5sccc45)CC3)cc2N1` [Compound of example 78, 6-(2-(4-(6-fluorobenzo[b]thiophen-4-yl)piperazin-1-yl)ethyl)-2H-benzo[b][1,4]oxazin-3(4H)-one] are 45.6 nM, 328 nM, 3 mg/kg and 0.599 nM.
Take `O=C1Cc2cc(CCN3CCN(c4cccc5sc(F)cc45)CC3)ccc2N1` [Compound of example 79, 5-(2-(4-(2-fluorobenzo[b]thiophen-4-yl)piperazin-1-yl)ethyl)indolin-2-one]: the IC50 was 3.87 nM in assay [1] and 16.8 nM in assay [4]. Besides, in assay [2], the “Effective dose” value amounted to 1 mg/kg. Also, the EC50 in assay [3] stood at 0.77 nM.
As for `Cc1nc2ccc(CCN3CCN(c4cccc5sccc45)CC3)cc2c(=O)[nH]1` [Compound of example 80, 6-(2-(4-(benzo[b]thiophen-4-yl)piperazin-1-yl)ethyl)-2-methylquinazolin-4(3H)-one], the IC50 in assay [1] came out at 25.1 nM; in assay [4] (setting [5]), 11.9 nM. The “Effective dose” value in assay [2] is recorded as 1 mg/kg. Moreover, in assay [3], the EC50 came out at 1.74 nM.
`Cl.O=S1(=O)NCCc2ccc(CCN3CCN(c4cccc5sccc45)CC3)cc21` [Compound of example 81, 7-(2-(4-(benzo[b]thiophen-4-yl)piperazin-1-yl)ethyl)-1,1-dioxide-3,4-dihydro-2H-benzo[e][1,2]thiazine hydrochloride]: the IC50 in assay [1] stood at 14.3 nM; in assay [4] (setting [5]), 1.67 nM. In addition, the “Effective dose” value in assay [2] came out at 1 mg/kg. Besides, the EC50 in assay [3] worked out at 1.05 nM.
In the same order, the values of `O=C1Cc2cc(CCN3CCC(c4cccc5sccc45)CC3)ccc2N1` [Compound of example 82, 5-(2-(4-(benzo[b]thiophen-4-yl)piperidin-1-yl)ethyl)indolin-2-one] are 10.9 nM, 11.5 nM, 1 mg/kg and 2.8 nM.
Regarding `O=C1CCc2ccc(CCN3CCC(c4cccc5sccc45)CC3)cc2N1` [Compound of example 83, 7-(2-(4-(benzo[b]thiophen-4-yl)piperidin-1-yl)ethyl)-3,4-dihydroquinolin-2(1H)-one], the IC50 stood at 10.4 nM in assay [1] and 25 nM in assay [4]. In assay [2], the “Effective dose” value turned out to be 1 mg/kg. For the same compound, the EC50 in assay [3] stood at 4.91 nM.
For the compound `O=C1CCc2ccc(CCN3CCN(c4cc(F)cc5sccc45)CC3)cc2N1` [Compound of example 85, 7-(2-(4-(6-fluorobenzo[b]thiophen-4-yl)piperazin-1-yl)ethyl)-3,4-dihydroquinolin-2(1H)-one], the IC50 turned out to be 5.32 nM in assay [1] and 77.5 nM in assay [4]. For the same compound, the “Effective dose” value in assay [2] is reported as 1 mg/kg. The EC50 in assay [3] is 1.38 nM.
In the case of `Cl.Cn1c(=O)n(C)c2cc(CCN3CCN(c4cccc5sccc45)CC3)ccc21` [Compound of example 87, 5-(2-(4-(benzo[b]thiophen-4-yl)piperazin-1-yl)ethyl)-1,3-dimethyl-1H-benzo[d]imidazol-2(3H)-one hydrochloride], the “Effective dose” value in assay [2] is given as 1 mg/kg. In assay [3], the EC50 came to 4.5 nM. Moreover, the IC50 in assay [4] (setting [5]) was 88 nM.
Turning to `Cn1c(=O)[nH]c2cc(CCN3CCN(c4cccc5sccc45)CC3)ccc21` [Compound of example 88, 5-(2-(4-(benzo[b]thiophen-4-yl)piperazin-1-yl)ethyl)-1-methyl-1H-benzo[d]imidazol-2(3H)-one], the IC50 in assay [1] was 215 nM; in assay [4] (setting [5]), 356 nM. Further, the “Effective dose” value in assay [2] worked out at 1 mg/kg. For the same compound, the EC50 in assay [3] amounted to 6.31 nM.
As for `Cc1nc2n(c(=O)c1CCN1CCN(c3cccc4sc(F)cc34)CC1)CCCC2O.Cl` (stereo not shown) [Compound of example 131, 3-(2-(4-(2-fluorobenzo[b]thiophen-4-yl)piperazin-1-yl)ethyl)-9-hydroxy-2-methyl-6,7,8,9-tetrahydro-4H-pyrido[1,2-a]pyrimidin-4-one hydrochloride], the “Effective dose” value in assay [2] is 3 mg/kg. Moreover, the EC50 in assay [3] came out at 26 nM. In addition, the IC50 in assay [4] worked out at 51.3 nM.
For `Cl.S=C1CCc2ccc(CCN3CCN(c4cccc5sccc45)CC3)cc2N1` [Compound of example 133, 7-(2-(4-(benzo[b]thiophen-4-yl)piperazin-1-yl)ethyl)-3,4-dihydroquinoline-2(1H)-thione hydrochloride], the IC50 in assay [1] was 10.9 nM. The “Effective dose” value in assay [2] came to 1 mg/kg.
